Assay results taken from PMC4022148 (Molecular and biochemical parasitology, 2014).

Biological target: T1, E. histolytica LMW-PTP (Entamoeba histolytica, UniProt C4LSE7)
T1 sequence (C4LSE7 1-157): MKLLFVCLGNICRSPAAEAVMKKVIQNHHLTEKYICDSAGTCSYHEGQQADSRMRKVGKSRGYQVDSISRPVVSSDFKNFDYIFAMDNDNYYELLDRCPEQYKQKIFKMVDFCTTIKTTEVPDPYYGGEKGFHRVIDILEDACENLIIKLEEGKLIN
Experiment: colorimetric phosphatase assay, A405
Type: biochemical
Settings: kit assay buffer, 10-200 ng enzyme, 100 ul

SMILES: O=[N+]([O-])c1ccc(OP(=O)(O)O)cc1 [pNPP]
- colorimetric phosphatase assay, A405 (SensoLyte pNPP kit): The wild-type recombinant LMW-PTP possessed phosphatase activity
